Test results published in patent US20260297060A1, “COMPOUNDS FOR THE DEGRADATION OF MUTANT BRAF” (C4 THERAPEUTICS, INC., priority 2023, published 2026).
Where two headings read alike, the source gives them in different places.

Experiments:
Assay type in all cases: in vivo, BALB/c nude mice
[1] = test system: A375 human melanoma xenografts; assay: Example 8 efficacy study in A375 human melanoma xenografts (tumor volume, T/C, TGI); settings: 10 mg/kg, p.o.
Procedure: For efficacy study, agents were tested in the A375 human melanoma xenografts model. Compound 8, Compound 26, and Compound 38 were administered to BALB/c nude mice bearing A375 xenografts from day 0 and dosed p.o. twice per day (BID). Compound 8 and Compound 26 were dosed at 10 mg/kg for 21 days. Compound 38 was dosed at 10 mg/kg for 10 days. The known BRAF inhibitor encorafenib was used as a positive control. encorafenib was administered from day 1 and dosed p.o. daily (QD) for 21 days and dosed at 35 mg/kg.
The A375 tumor cells were maintained in vitro in DMEM medium supplemented with […] and 1% Penicillin-Streptomycin at 37° C. in an atmosphere of 5% CO2 in air. The tumor cells were routinely subcultured twice weekly. The cells growing in an exponential growth phase were harvested and counted for tumor inoculation.
Each mouse was inoculated subcutaneously at the right flank with A375 cells (5×10^6) in 0.2 mL of PBS supplemented with Matrigel (PBS:Matrigel=1:1) for tumor development. Animals were grouped for treatment 16 days after tumor inoculation when the average tumor volume reached 234 mm^3 for efficacy study and 382 mm^3 for PKPD study. The test articles administration and the animal numbers in each group are shown in the above experimental tables.
(§1) Prior to the onset of drug treatment, mice were measured for tumor size in two dimensions using a caliper, and the tumor volume (mm^3) was calculated using formula V=0.5 a×b^2 where a and b are the long and short diameters of the tumor in mm, respectively. Mice were randomized into different treatment groups based on the tumor volume.
(§2) The major endpoint was to see if the tumor growth could be delayed or mice could be cured. The tumor size was then used for calculations of T/C value. The T/C value (in percent) is an indication of antitumor effectiveness; T and C are the mean volumes of the treated and control groups, respectively on specified day.
(§3) TGI was calculated for each group using the formula: TGI (%)=[1−(Ti−T0)/(Ci−C0)]×100; Ti is the average tumor volume of a treatment group on a given day, T0 is the average tumor volume of the treatment group on the day of treatment start, Ci is the average tumor volume of the vehicle control group on the same day with Ti, and C0 is the average tumor volume of the vehicle group on the day of treatment start.

[2] = Example 6 pharmacokinetics assay for efficacy study (plasma, liver); settings: 10 mg/kg, p.o., BID × 21 days; for concentration at 6 h: mouse, po
Procedure: (§4) For efficacy study, compounds were tested in the A375 human melanoma xenografts. Known BRAF inhibitors encorafenib, and dabrafenib were used as positive controls. Encorafenib and dabrafenib were administered to BALB/c nude mice bearing A375 tumors on PG-D1 and dosed PO daily (QD) for 3 weeks. Encorafenib was dosed at 35 mg/kg. Dabrafenib was dosed at 100 mg/kg. Compound 83, Compound 93, Compound 70, and Compound 54 were administered to BALB/c nude mice bearing A375 tumors on PG-DO and dosed PO twice per day (BID) for 3 weeks. Compound 83, Compound 93, Compound 70, and Compound 54 were dosed at 10 mg/kg.
The plasma samples were collected at predetermined time points for PK analysis. The mice were euthanized at predetermined time points post the treatment. The blood samples were collected into the 1.5 mL Eppendorf tubes containing 15 μL of 0.5 M EDTA-K2. And then the anticoagulant blood samples were centrifuged at 2,500 g at 4° C. for 15 minutes. The plasma samples were separated into 2 aliquots. The 1st was used for PK analysis, and the 2nd served as backup. The samples were stored at −80° C. before bioanalysis.
Liver samples were collected at predetermined time points for PK analysis. The left lobe of the liver was dissected out and split into 2 parts. The 1st part was used for PK analysis and the 2nd part served as the backup for the study. The samples were transferred into pre-labeled tubes and quickly froze in liquid nitrogen within 2 minutes after dissection. The samples were stored at −80° C. before bioanalysis.
For efficacy study, the harvested plasma and liver were processed for pharmacokinetics analysis by LC/MS/MS with a concentration range of 2.00-2000 ng/mL for Encorafenib and Dabrafenib in plasma, 0.20-200 ng/mL for Encorafenib and Dabrafenib in liver, 50.0-50000 ng/mL for compound 83 and compound 70 in plasma, 20.0-20000 ng/mL for Compound 93 and Compound 54 in plasma, 5.00-5000 ng/mL for compound 93, compound 83, compound 70 and compound 54 in liver.

[3] = test system: A375 human melanoma xenografts; assay: Example 6 efficacy study in A375 human melanoma xenografts (tumor volume, T/C, TGI); settings: 10 mg/kg, p.o., BID × 21 days; for T/C / TGI / Tumor Size on PG-D21: PG-D21; for Tumor Size on PG-D21 / Tumor volume: Mean ± SEM
Procedure: as §4
The A375 tumor cells were maintained in vitro in DMEM medium supplemented with […] and 1% Penicillin-Streptomycin at 37° C. in an atmosphere of 5% CO2 in air. The tumor cells were routinely subcultured twice weekly. The cells growing in an exponential growth phase were harvested and counted for tumor inoculation.
Each mouse was inoculated subcutaneously at the right flank with A375 tumor cells (5×10^6) in 0.2 mL of PBS with Matrigel (PBS: Matrigel=1:1) supplemented for tumor development. Animals were grouped for the treatment on day 16 after tumor inoculation when the average tumor volume reached 221 mm^3 for efficacy study and 386 mm^3 for PKPD study. The test articles administration and the animal numbers in each group are shown in the above experimental Tables.
as §1, §2, §3

Row | Structure (SMILES) | T/C ([1]; BID × 21 days, PG-D21) [%] | TGI ([1]; BID × 21 days, PG-D21) [%] | Tumor Size on PG-D21 (Mean ± SEM) ([1]; BID × 21 days, PG-D21) [mm^3] | Tumor Volume (mean ± SEM) ([1]; BID × 21 days, day 0) [mm^3] | Tumor Volume (mean ± SEM) ([1]; BID × 21 days, day 3) [mm^3] | Tumor Volume (mean ± SEM) ([1]; BID × 21 days, day 6) [mm^3] | Tumor Volume (mean ± SEM) ([1]; BID × 21 days, day 9) [mm^3] | Tumor Volume (mean ± SEM) ([1]; BID × 21 days, day 13) [mm^3] | Tumor Volume (mean ± SEM) ([1]; BID × 21 days, day 17) [mm^3] | Tumor Volume (mean ± SEM) ([1]; BID × 21 days, day 21) [mm^3] | T/C [3] [%] | TGI [3] [%] | Tumor Size on PG-D21 [3] [mm^3] | Tumor volume ([3]; day 0) [mm^3] | Tumor volume ([3]; day 4) [mm^3] | Tumor volume ([3]; day 7) [mm^3] | Tumor volume ([3]; day 11) [mm^3] | Tumor volume ([3]; day 14) [mm^3] | Tumor volume ([3]; day 18) [mm^3] | Tumor volume ([3]; day 21) [mm^3] | also measured
1 | CCN(C)S(=O)(=O)Nc1ccc(F)c(Oc2ccc3ncn(C4CC5(CCN(C6CCC(c7cc8c(cc7F)c(N7CCC(=O)NC7=O)nn8C)CC6)CC5)C4)c(=O)c3c2)c1C#N (single isomer, unassigned) [Compound 8, 6-[2-cyano-3-[[ethyl(methyl)sulfamoyl]amino]-6-fluoro-phenoxy]-3-[7-[4-[3-(2,4-dioxohexahydropyrimidin-1-yl)-5-fluoro-1-methyl-indazol-6-yl]cyclohexyl]-7-azaspiro[3.5]nonan-2-yl]-4-oxo-quinazoline] | 1.29 | 114.48 | 22 ± 3 | 234 ± 7 | 185 ± 6 | 105 ± 9 | 57 ± 4 | 32 ± 4 | 28 ± 3 | 22 ± 3 | – | – | – | – | – | – | – | – | – | – | –
2 | CCN(C)S(=O)(=O)Nc1ccc(F)c(Oc2ccc3ncn([C@H]4COC5(CCC(N6CCC(c7cc8c(cc7F)c(N7CCC(=O)NC7=O)nn8C)C(F)(F)C6)CC5)C4)c(=O)c3c2)c1C#N (single isomer, unassigned) [Compound 38] | – | – | – | – | – | – | – | – | – | – | – | – | – | – | – | – | – | – | – | – | T/C ([1]; BID × 10 days, PG-D9): 4.30%; TGI ([1]; BID × 10 days, PG-D9): 134.38%; Tumor Size on PG-D9 (mean ± SEM) ([1]; BID × 10 days, PG-D9): 35 ± 3 mm^3; Tumor Volume (mean ± SEM) ([1]; BID × 10 days, day 0): 234 ± 7 mm^3; Tumor Volume (mean ± SEM) ([1]; BID × 10 days, day 3): 134 ± 7 mm^3; Tumor Volume (mean ± SEM) ([1]; BID × 10 days, day 6): 67 ± 7 mm^3; Tumor Volume (mean ± SEM) ([1]; BID × 10 days, day 9): 35 ± 3^b mm^3
3 | CCN(C)S(=O)(=O)Nc1ccc(F)c(Oc2ccc3ncc([C@@H]4COC5(CCN(C6CCC(c7cc8c(cc7F)c(N7CCC(=O)NC7=O)nn8C)CC6)CC5)C4)nc3c2)c1C#N (single isomer, unassigned) [Compound 54] | – | – | – | – | – | – | – | – | – | – | 4.1 | 106.6 | 90 ± 27 | 221 ± 11 | 132 ± 13 | 90 ± 14 | 65 ± 13 | 57 ± 13 | 53 ± 13 | 90 ± 27 | concentration at 6 h ([2]; liver, read-out: Concentration in Liver (mean ± SEM)): 4240 ± 955 ng/g; concentration at 6 h ([2]; plasma, read-out: Concentration in Plasma (mean ± SEM)): 3990 ± 634 ng/mL
4 | CCN(C)S(=O)(=O)Nc1ccc(F)c(Oc2ccc3ncn([C@H]4COC5(CCN(C6CC(c7cc8c(cc7F)c(N7CCC(=O)NC7=O)nn8C)C6)CC5)C4)c(=O)c3c2)c1C#N (single isomer, unassigned) [Compound 70] | – | – | – | – | – | – | – | – | – | – | 0.9 | 110.1 | 19 ± 2 | 221 ± 10 | 111 ± 13 | 66 ± 6 | 44 ± 3 | 34 ± 2 | 24 ± 2 | 19 ± 2 | Concentration in Liver (mean ± SEM) ([2]; 6 h): 6392 ± 570 ng/g; Concentration in Plasma (mean ± SEM) ([2]; 6 h): 16083 ± 1345 ng/mL
5 | CCN(C)S(=O)(=O)Nc1ccc(F)c(Oc2ccc3ncn([C@H]4COC5(CCN(C6CC7(C6)CN(c6cc8c(cc6F)c(N6CCC(=O)NC6=O)nn8C)C7)CC5)C4)c(=O)c3c2)c1C#N [Compound 26, (3R)-3-[6-[2-cyano-3-[[ethyl(methyl)sulfamoyl]amino]-6-fluoro-phenoxy]-4-oxo-quinazolin-3-yl]-8-[2-[3-(2,4-dioxohexahydropyrimidin-1-yl)-5-fluoro-1-methyl-indazol-6-yl]-2-azaspiro[3.3]heptan-6-yl]-1-oxa-8-azaspiro[4.5]decane] | 0.97 | 114.89 | 16 ± 2 | 234 ± 7 | 148 ± 10 | 57 ± 4 | 33 ± 3 | 21 ± 2 | 18 ± 1 | 16 ± 2 | – | – | – | – | – | – | – | – | – | – | –
